Results reported in publication PMC2746281 (PLoS ONE, 2009).

Experiments:
[1] = biological target: Flt3 (Homo sapiens, UniProt P36888); test: Recombinant kinase ELISA assay, Flt3; assay type: biochemical; conditions: recombinant human enzyme; ELISA-based assay, poly(Glu,Tyr 4:1) substrate
Method: (§1) Full details for the generation of recombinant human KIT intracellular domain and other protein kinases (including Lyn, platelet derived growth factor receptor β, epidermal growth factor receptor, fibroblast growth factor receptor 1, Src, HCK, PYK, FES, Btk, Bmx, c-Ret, c-Fms, Syk, and c-Met) are provided in the Supplemental Methods (see Supporting Information; Methods S1). Experiments on ABL1, Akt1, protein kinase C-α, insulin-like growth factor receptor 1, and Pim1 were carried out by Proqinase (Germany). All other recombinant protein kinases were performed in-house using an enzyme-linked immunoassay; experimental details are provided in the Supplemental Methods (see Supporting Information; Methods S1).

[2] = biological target: Fibroblast growth factor receptor 3 (Homo sapiens, UniProt P22607); test: Recombinant kinase ELISA assay, FGFR3; assay type: biochemical; conditions: recombinant human enzyme; ELISA-based assay, poly(Glu,Tyr 4:1) substrate
Method: as §1
A 96-well microtitre plate (Immulon 2HB; ThermoLifeScience, Finland) was coated overnight with 0.25 mg/ml poly(Glu,Tyr 4:1), rinsed twice with 250 µl of washing buffer (10 mM phosphate-buffered saline [pH 7.4] and 0.05% Tween 20) and dried for 2 hours at room temperature. […] Reactions were initiated upon introduction of the enzyme and terminated with the addition of one reaction volume (50 μl) of 100 mM EDTA per 5 M urea mix. […] The final reaction product was quantified by spectrophotometry at 450 nm.

[3] = biological target: Focal adhesion kinase (Homo sapiens, UniProt Q05397); test: Recombinant kinase ELISA assay, focal adhesion kinase; assay type: biochemical; conditions: recombinant human enzyme; ELISA-based assay, poly(Glu,Tyr 4:1) substrate
Method: as §1

[4] = biological target: T1, Pim1 (Homo sapiens, UniProt P11309); test: Recombinant kinase screen (Proqinase), Pim1; assay type: biochemical; conditions: recombinant human enzyme; single experiment, kinase screen by Proqinase
T1 construct: purchased Proqinase (Germany)
Method: as §1

[5] = biological target: T2, KIT D^814V (murine) (Mus musculus, UniProt P05532, D818V); test: Ba/F3 cell proliferation (WST-1), KIT D814V; conditions: Ba/F3 cells expressing the enzyme, read-out: Cell-based assay IC50, KIT D^814V (murine)
T2 construct: expressed in transfected cells; host or cells: Ba/F3

[6] = biological target: Jak2 (Homo sapiens, UniProt O60674); test: Ba/F3 cell proliferation (WST-1), Jak2; conditions: Ba/F3 cells expressing the enzyme, read-out: Cell-based assay IC50, Jak2
[7] = tested on: human cord-blood-derived mast cells (CBMC); test: FcεRI-mediated degranulation (β-hexosaminidase release) of IgE-anti IgE activated CBMC; assay type: cell-based; conditions: Mast cell, 0.5 h, 30 minutes of stimulation
Method: (§2) (see Supporting Information; Methods S1). […] Assays of β-hexosaminidase release and TNF-α release were made by stimulating the CBMC with 1 µg/ml of goat anti-human IgE (Vector Laboratories) for 30 minutes or 4 hours, respectively. β-hexosaminidase was measured in the supernatant and in the sonicated cell pellets and its net release calculated. For TNF-α determination, the cell-free supernatants were collected by centrifugation and frozen at −80°C until determination of mediator content by the use of a specific ELISA kit according to manufacturer's instructions (Coulter, France). All assays were performed in duplicate and counts were repeated twice for each well.
(§3) Human CBMC were produced by long-term culture of CD34+ progenitors purified from normal cord-blood. […] At the beginning of the culture, rhIL-3 (1 ng/ml) (R&D Systems Europe, France) was also added to induce maximal expansion of haematopoietic progenitors. After 3 days the IL-3 was removed and 4 days later cells were transferred to a complete serum-free medium containing rmSCF at 100 ng/ml, which was renewed every 7 days thereafter. After 8 weeks in culture ≥99% of the cells were identified as being mast cells by May-Grünwald-Giemsa staining of cytocentrifuged samples.

[8] = tested on: human cord-blood-derived mast cells (CBMC); test: TNF-α release by IgE-anti IgE-activated CBMC (ELISA); assay type: cell-based; conditions: Mast cell, 4 hours of stimulation
Method: as §2, §3

[9] = tested on: primary BMMCs; test: IL-3-stimulated proliferation of primary BMMCs; assay type: cell-based, mice; conditions: Mus musculus, BMMC, primary murine BMMCs
Method: (B) western blotting analysis of HMC-1α155 tyrosine phosphorylation. […] (D) Western blotting analysis of BMMC tyrosine phosphorylation. Cell proliferation was assessed by WST-1 colorimetric assay. […] MW = molecular weight.

[10] = tested on: Salmonella typhimurium and Escherichia coli; test: Bacterial reverse mutation test; conditions: our unpublished results
[11] = tested on: mouse bone marrow cells; test: Chromosome / mitotic apparatus damage in mouse bone marrow cells; assay type: in vivo; conditions: two daily administrations at 437.5, 875, or 1750 mg/kg/day, our unpublished results
[12] = Solubility; assay type: physicochemical
Description: The chemical name is 4-(4-methylpiperazin-1-ylmethyl)-N-[4-methyl-3-(4-pyridin-3ylthiazol-2-ylamino) phenyl]benzamide-mesylate methane sulfonic acid salt, and the chemical formula is C28H30N6OS·CH4O3S (Figure 1A). […] Fresh dilutions of masitinib were made for each experiment. The imatinib used in this study was purchased from Sequoia Research (UK).

T1 sequence (P11309 whole entry): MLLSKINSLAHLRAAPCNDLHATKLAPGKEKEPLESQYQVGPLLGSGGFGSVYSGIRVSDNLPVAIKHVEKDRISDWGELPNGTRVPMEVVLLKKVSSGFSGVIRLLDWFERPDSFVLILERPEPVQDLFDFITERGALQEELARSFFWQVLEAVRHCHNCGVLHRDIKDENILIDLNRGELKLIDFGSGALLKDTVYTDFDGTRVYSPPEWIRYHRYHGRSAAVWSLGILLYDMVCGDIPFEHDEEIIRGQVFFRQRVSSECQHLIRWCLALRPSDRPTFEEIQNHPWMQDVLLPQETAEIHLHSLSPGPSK
Sequence of Jak2 (O60674 whole entry): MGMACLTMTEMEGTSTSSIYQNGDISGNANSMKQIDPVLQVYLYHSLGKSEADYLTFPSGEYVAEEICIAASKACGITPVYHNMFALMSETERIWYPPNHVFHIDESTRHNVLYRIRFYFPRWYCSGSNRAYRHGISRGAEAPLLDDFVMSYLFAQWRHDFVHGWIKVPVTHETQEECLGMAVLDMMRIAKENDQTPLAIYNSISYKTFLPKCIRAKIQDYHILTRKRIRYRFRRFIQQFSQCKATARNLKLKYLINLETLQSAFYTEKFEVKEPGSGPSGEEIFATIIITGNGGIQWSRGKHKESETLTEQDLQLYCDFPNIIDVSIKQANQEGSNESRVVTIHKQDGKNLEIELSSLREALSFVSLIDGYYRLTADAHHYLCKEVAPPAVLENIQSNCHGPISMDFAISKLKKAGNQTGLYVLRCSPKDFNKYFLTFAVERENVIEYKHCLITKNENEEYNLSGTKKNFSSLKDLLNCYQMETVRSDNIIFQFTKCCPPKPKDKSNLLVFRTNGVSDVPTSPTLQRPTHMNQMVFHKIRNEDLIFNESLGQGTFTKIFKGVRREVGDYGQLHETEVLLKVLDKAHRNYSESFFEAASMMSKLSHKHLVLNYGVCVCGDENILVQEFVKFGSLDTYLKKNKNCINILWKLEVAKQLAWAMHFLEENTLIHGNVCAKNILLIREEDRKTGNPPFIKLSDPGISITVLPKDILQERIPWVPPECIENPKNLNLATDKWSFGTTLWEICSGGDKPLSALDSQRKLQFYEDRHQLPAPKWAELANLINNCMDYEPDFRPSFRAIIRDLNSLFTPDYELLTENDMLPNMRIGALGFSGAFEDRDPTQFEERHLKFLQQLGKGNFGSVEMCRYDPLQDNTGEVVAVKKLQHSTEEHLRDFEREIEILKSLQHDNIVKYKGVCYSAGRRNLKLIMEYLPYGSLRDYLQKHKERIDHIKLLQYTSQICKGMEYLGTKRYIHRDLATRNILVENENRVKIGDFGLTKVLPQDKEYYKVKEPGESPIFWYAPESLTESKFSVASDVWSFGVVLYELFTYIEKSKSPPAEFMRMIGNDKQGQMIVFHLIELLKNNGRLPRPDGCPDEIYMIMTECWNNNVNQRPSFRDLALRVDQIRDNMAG
Sequence of Fibroblast growth factor receptor 3 (P22607 23-806): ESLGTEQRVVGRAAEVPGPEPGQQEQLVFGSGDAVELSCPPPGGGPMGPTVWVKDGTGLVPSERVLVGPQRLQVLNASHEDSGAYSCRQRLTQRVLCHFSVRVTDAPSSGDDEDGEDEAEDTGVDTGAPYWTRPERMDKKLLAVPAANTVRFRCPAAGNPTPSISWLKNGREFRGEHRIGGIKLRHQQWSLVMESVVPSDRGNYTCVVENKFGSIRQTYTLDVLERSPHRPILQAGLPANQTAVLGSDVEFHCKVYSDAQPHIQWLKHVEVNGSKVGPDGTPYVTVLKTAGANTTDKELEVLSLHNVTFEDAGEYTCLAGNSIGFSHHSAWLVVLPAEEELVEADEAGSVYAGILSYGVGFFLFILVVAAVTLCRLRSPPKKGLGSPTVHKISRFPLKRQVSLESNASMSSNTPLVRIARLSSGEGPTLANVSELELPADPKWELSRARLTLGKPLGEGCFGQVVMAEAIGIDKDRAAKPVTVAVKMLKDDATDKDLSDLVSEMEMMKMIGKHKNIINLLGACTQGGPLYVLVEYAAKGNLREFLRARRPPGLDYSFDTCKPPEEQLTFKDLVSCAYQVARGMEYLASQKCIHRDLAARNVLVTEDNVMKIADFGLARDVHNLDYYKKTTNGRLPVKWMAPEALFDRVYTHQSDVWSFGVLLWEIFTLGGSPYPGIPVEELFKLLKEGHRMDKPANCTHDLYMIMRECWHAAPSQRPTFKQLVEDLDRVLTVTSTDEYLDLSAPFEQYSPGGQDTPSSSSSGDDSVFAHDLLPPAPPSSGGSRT
T2 sequence (P05532 25-975 isoform P05532-2 D814V limits assumed): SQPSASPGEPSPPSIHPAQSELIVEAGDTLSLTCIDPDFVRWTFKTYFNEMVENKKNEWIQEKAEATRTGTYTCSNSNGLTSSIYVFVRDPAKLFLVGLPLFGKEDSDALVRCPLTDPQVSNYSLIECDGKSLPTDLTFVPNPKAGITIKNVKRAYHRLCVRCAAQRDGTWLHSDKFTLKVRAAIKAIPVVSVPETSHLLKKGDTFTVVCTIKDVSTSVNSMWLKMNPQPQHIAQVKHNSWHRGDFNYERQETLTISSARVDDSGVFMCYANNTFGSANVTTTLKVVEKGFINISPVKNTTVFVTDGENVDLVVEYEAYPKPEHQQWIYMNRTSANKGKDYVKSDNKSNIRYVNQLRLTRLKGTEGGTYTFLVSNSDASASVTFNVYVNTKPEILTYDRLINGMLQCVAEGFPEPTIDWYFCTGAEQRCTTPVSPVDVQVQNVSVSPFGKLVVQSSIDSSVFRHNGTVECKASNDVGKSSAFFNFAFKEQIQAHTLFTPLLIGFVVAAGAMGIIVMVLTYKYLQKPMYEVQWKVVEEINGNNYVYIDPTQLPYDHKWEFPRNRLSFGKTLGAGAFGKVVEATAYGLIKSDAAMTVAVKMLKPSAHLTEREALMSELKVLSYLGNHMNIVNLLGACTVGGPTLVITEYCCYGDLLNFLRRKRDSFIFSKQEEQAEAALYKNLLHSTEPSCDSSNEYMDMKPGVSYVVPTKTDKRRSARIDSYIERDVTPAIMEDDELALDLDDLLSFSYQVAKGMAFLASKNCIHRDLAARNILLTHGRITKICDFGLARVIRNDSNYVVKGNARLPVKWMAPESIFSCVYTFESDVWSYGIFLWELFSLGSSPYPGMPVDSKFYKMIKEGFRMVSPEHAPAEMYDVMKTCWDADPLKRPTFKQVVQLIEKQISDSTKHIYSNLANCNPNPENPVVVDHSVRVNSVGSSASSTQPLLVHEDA
Sequence of Flt3 (P36888 27-993): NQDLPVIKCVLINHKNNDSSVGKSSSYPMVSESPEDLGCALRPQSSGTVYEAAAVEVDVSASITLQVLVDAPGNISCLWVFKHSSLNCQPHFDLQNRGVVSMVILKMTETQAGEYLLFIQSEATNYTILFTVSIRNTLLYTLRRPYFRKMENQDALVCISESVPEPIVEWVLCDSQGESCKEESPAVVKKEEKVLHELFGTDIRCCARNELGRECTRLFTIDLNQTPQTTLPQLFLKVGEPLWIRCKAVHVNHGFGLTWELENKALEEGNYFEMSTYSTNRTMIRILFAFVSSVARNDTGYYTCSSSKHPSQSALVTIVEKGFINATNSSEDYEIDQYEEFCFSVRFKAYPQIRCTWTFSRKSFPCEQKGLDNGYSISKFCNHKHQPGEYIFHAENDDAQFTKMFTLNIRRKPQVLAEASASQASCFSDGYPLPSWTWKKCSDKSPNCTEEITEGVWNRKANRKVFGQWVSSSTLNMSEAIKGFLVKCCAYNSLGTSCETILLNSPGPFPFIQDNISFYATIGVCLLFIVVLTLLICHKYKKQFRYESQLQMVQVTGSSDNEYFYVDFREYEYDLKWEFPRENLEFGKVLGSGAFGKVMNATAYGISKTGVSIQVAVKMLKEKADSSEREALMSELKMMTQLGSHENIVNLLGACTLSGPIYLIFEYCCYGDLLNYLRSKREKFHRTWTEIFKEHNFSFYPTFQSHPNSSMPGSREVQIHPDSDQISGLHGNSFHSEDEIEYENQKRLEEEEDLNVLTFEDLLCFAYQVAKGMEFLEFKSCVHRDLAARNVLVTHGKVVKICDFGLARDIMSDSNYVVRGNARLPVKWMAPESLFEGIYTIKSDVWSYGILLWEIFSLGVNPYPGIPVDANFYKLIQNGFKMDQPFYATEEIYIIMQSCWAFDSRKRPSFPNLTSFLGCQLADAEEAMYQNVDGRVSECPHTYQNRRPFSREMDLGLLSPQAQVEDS

CS(=O)(=O)O.CS(=O)(=O)O.Cc1ccc(NC(=O)c2ccc(CN3CCN(C)CC3)cc2)cc1Nc1nc(-c2cccnc2)cs1 [masitinib, 4-(4-methylpiperazin-1-ylmethyl)-N-[4-methyl-3-(4-pyridin-3ylthiazol-2-ylamino)phenyl]benzamide-mesylate methane sulfonic acid salt]
IC50 [1]: > 10 µM | IC50 [2]: > 10 µM | IC50 [3]: > 10 µM | IC50 [4]: > 10 µM | IC50 [5]: 3 ± 0.1 µM | IC50 [6]: 10 ± 0.8 µM | inhibition at 0.1 µM ([7]; 0.1 µM): 7% | inhibition at 1 µM ([7]; 1.0 µM): 18% | inhibition at 10 µM ([7]; 10 µM): 35% | inhibition at 0.1 µM ([8]; 0.1 µM): 16% | inhibition at 1 µM ([8]; 1.0 µM): 40% | inhibition at 10 µM ([8]; 10 µM): 68% | IC50 [9]: > 10 µM | mutagenicity in bacterial reverse mutation tests [10]: not mutagenic | damage to chromosomes or the mitotic apparatus [11]: does not cause damage to chromosomes or the mitotic apparatus | solubility ([12]; 0.1 M HCl): freely soluble | solubility ([12]; 0.1 M NaOH): practically insoluble | solubility ([12]; dimethylsulfoxide): freely soluble | solubility ([12]; ethanol): slightly soluble | solubility ([12]; n-hexane): practically insoluble | solubility ([12]; propylene glycol): slightly soluble | solubility ([12]; water): soluble
